Results as given in paper PMC9415731, “Evaluation of PepT1 (SLC15A1) Substrate Characteristics of Therapeutic Cyclic Peptides” (Pharmaceutics, 2022).
Where two headings read alike, the source gives them in different places. Numbered stars: 1 amine (or outer) side, 2 acyl side, 3 side chain; on linkers, the order of the positions; unused ones are H or OH. Square brackets hold non-standard residues; d marks the D form. Side chains are listed from the residue outwards. Peptide text beside a SMILES is read from it. * marks the point of attachment. Ethylenediamine = C(CN[*:2])N[*:1]; Hyp = O=C(O)[C@@H]1C[C@@H](O)CN1; Phg = N[C@H](C(=O)O)c1ccccc1; CO = O=C([*:1])[*:2]; Bn = c1ccc(C*)cc1

Columns and labels:
hPepT1 (SLC15A1) [1] = biological target: T1, hPepT1 (SLC15A1) (Homo sapiens, UniProt P46059); experiment: Inhibition of Gly-Sar uptake in hPepT1 overexpressing CHO-K1 clones (semi-high-throughput 96-well assay); type: cell-based
T1 construct: host or cells: CHO-K1 (clones CHO-hPepT1-M5 and CHO-hPepT1-200)
T1 sequence (P46059 1-708): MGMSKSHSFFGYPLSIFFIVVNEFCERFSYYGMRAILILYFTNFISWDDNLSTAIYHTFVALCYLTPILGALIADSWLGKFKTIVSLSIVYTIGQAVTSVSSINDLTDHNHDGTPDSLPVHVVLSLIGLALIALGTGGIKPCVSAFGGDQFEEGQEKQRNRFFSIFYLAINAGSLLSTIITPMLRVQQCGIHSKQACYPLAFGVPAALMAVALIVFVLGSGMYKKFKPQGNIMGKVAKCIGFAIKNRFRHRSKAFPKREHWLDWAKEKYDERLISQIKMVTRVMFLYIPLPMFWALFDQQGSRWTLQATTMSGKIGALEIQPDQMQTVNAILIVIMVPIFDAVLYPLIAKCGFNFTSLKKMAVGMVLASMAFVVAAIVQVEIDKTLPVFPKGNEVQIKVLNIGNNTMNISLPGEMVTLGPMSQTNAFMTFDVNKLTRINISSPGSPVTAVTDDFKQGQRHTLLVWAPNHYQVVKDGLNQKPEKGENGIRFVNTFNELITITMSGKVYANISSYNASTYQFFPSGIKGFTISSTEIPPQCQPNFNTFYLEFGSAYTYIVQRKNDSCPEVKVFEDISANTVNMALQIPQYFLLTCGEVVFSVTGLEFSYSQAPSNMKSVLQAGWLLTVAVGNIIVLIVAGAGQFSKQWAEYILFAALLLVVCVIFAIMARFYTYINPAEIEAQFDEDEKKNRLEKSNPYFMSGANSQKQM
Method: In a second step, inhibition of hPepT1 by losartan, one of the strongest inhibitors of this transporter, was tested in both clones. Inhibition experiments were conducted as previously described at a Gly-Sar concentration of 20 µM [13]. In brief, cells were seeded in 96-well plates 1 d before the assay at a concentration of 5 × 10^4 per well. On the day of the inhibition experiment, cells were washed once with MES buffer (100 µL/well) and subsequently incubated with 20 µM Gly-Sar and losartan (0.1–5000 µM), all prepared in MES buffer. After an incubation period of 10 min at 37 °C on a rotary shaker (450 rpm), transport was terminated by removing the solution and washing the cells with ice-cold MES buffer thrice while the plate was kept on ice. Afterwards, cells were lysed in the 96-well cell culture plate with aqueous NH4OH (10%, 50 µL/well), and sample preparation was performed as described previously. Inhibition in the clone CHO-hPepT1-M5 was also tested with Gly-Pro (0.1–5000 µM) as described for losartan.
The cyclic peptides were first evaluated for hPepT1 inhibition with the semi-high-throughput assay in 96-well plates established and validated earlier, but using CHO-hPepT1-M5 instead of Caco-2 cells. Cells were seeded 2 d before the assay at a concentration of 5 × 10^4/well, and the assay was conducted as published previously. Each concentration was tested in octuplet, and each experiment performed thrice.
(§1) Nonlinear regression curves were calculated with GraphPad Prism version 9.3.1 (GraphPad Software Inc., La Jolla, CA, USA) using the four-parameter fit (sigmoidal dose-response curves with variable slope) for inhibition experiments of a one-phase association nonlinear curve fit for the Gly-Sar uptake. […] A p-value < 0.05 was considered significant.

hPepT1 (SLC15A1) [2] = biological target: T1, hPepT1 (SLC15A1); experiment: Uptake of cyclic peptides in CHO-hPepT1-M5 cells compared with parental CHO-K1 cells, with and without Gly-Pro; type: cell-based; details: for hPepT1 substrate characteristics (conclusion): uptake in CHO-hPepT1-M5 vs CHO-K1 cells, with and without Gly-Pro
Method: For investigating the possible hPepT1 substrate characteristics of the cyclic peptides, their uptake was measured in the CHO-hPepT1-M5 clone with and without inhibition by Gly-Pro and compared with the CHO-K1 parental clone.
For each sample, 5 × 10^5 cells were suspended in 1.5 mL low-binding reaction tubes and washed once in MES buffer. Subsequently, cells were incubated in 100 µL of the respective cyclic peptide solution in MES with or without 20 mM Gly-Pro at 37 °C for 10 min on a rotary shaker (450 rpm). Cells were then washed twice with 0.4 mL ice-cold MES buffer before further proceeding as described in Section 2.8. Each concentration was tested in triplicate, and the experiment was conducted at least thrice.
Cell lysis was performed with 50 µL of 10% aqueous ammonia, and the lysates acidified with 50 µL of 20% aqueous FA to ensure stability of the peptide therapeutics during sample processing. Sample preparation and UPLC–MS/MS measurements were performed as previously described for plasma.
as §1

[3] = oral, Beagle dogs; ref Sauter et al., unpublished data; cited from earlier work
[4] = CHO-hPepT1-M5 cells, 20 µM Gly-Sar, inhibitor 0.1-5000 µM, MES buffer pH 6.0, 10 min, 37 °C, UPLC-MS/MS, mean ± S.E.M. of three independent experiments, each concentration in sextuplets, read-out: IC50 for inhibition of the Gly-Sar uptake

Structure (SMILES)	IC50 (hPepT1 (SLC15A1) [1]; [4])	IC50 (hPepT1 (SLC15A1) [1])	hPepT1 substrate characteristics (conclusion) (hPepT1 (SLC15A1) [2])	Bioavailability [3]	Difference in uptake between cells without (CHO-K1) and with hPepT1 overexpression (CHO-hPepT1-M5) (hPepT1 (SLC15A1) [2]; 5 x 10^5 cells in suspension, MES buffer pH 6, 10 min, 37 °C, intracellular quantification by UPLC-MS/MS, three experiments in triplicate, two-way ANOVA with Bonferroni post hoc test)	Influence of the PepT1 inhibitor Gly-Pro on the uptake (hPepT1 (SLC15A1) [2]; with or without 20 mM Gly-Pro, CHO-hPepT1-M5 and CHO-K1 cells, MES buffer pH 6, 10 min, 37 °C, UPLC-MS/MS, three experiments in triplicate)	Inhibition of the Gly-Sar uptake, shape of inhibition curve (hPepT1 (SLC15A1) [1]; CHO-hPepT1-200 cells, 20 µM Gly-Sar, losartan 0.1-5000 µM, MES buffer pH 6.0, 10 min, 37 °C, compared with CHO-hPepT1-M5)
NCC(=O)N1CCC[C@H]1C(=O)O [Gly-Pro] (H-Gly-Pro-OH)	196 ± 41 µM	–	–	–	–	–	–
C[C@@H](O)[C@@H]1NC(=O)[C@H](CCCCN)NC(=O)[C@@H](Cc2c[nH]c3ccccc23)NC(=O)[C@H](Cc2ccccc2)NC(=O)[C@@H](NC(=O)[C@H](N)Cc2ccccc2)CSSC[C@@H](C(=O)N[C@H](CO)[C@@H](C)O)NC1=O [octreotide]	–	4200 ± 1600 µM	not transported by hPepT1	> 1%	–	–	–
NCCCC[C@@H]1NC(=O)[C@@H](Cc2c[nH]c3ccccc23)NC(=O)[C@H](c2ccccc2)NC(=O)[C@@H]2C[C@@H](OC(=O)NCCN)CN2C(=O)[C@H](Cc2ccccc2)NC(=O)[C@H](Cc2ccc(OCc3ccccc3)cc2)NC1=O [pasireotide] (cyclo([Hyp]([CO-Ethylenediamine])[Phg][dW]KY(Bn)F))	–	530 ± 110 µM	not transported by hPepT1	> 1%	no obvious difference in the uptake	no significant influence on the uptake	–
CCCCc1nc(Cl)c(CO)n1Cc1ccc(-c2ccccc2-c2nn[nH]n2)cc1 [losartan]	37 ± 4.8 µM	–	–	–	–	–	the inhibition curve was much flatter
